Measured values taken from patent US20050061314A1, “Metered dose inhaler” (Vactura Limited, priority 2001, published 2005).

Tests used:
[1] = Andersen Cascade Impactor aerosol characterisation of pMDI solution formulations; type: physicochemical
Description: The FPD, which provides a direct measurement of the aerosol particles considered suitable for deposition and retention in the respiratory tract, is calculated as the mass of the particles deposited from stage 3 to the filter (particles with an aerodynamic diameter less than 4.7 μm) in an Andersen Cascade Impactor.
The aerodynamic particle size distribution of an aerosol formulation is characterised using a Multistage Cascade Impactor according to the procedure described in European Pharmacopoeia 2nd edition, 1995, part V.5.9.1, pages 15-17. Generally an Andersen Cascade Impactor (ACI) is utilised. Deposition of the drug on each ACI plate is determined by high performance liquid chromatography (HPLC). Mean metered dose is calculated from the cumulative deposition in the actuator and ACI stages; mean delivered dose is calculated from the cumulative deposition in the ACI. Mean respirable dose (fine particle dose, i.e. FPD) which provides a direct measurement of the aerosol particles is considered suitable for deposition and retention in the respiratory tract, is obtained from the deposition on Stage 3 (S3) to filter (AF) corresponding to particles with an aerodynamic diameter ≦4.7 μm. Smaller particles, with an aerodynamic diameter ≦1.1 μm correspond to the fraction obtained from the deposition on Stage 6 to filter.
The FPD can also be expressed as a percentage of the ex-valve dose or recovered dose (i.e. Fine Particle Fraction: FPF≦4.7 μm or FPF≦1.1 μm). Shot weights are measured by weighing each canister before and after the actuation.
The experiments of example 2 consisted of discharging Δ^9-THC (THC)/ethanol/glycerol/HFA 134a and Δ^9-THC hemisuccinate (THC-HS)/ethanol/glycerol/HFA 134a formulations through actuator inserts housed in a modified Bespak actuator (630 series) into an Andersen Cascade Impactor operated at 28.3 L min^−1. Two product strengths, 100 μg/dose and 1000 μg/dose, were used in combination with 5% or 10% w/w ethanol, and 0.1% or 0.3% glycerol. Experiments were conducted using 0.14 and 0.16 mm diameter, 0.60 mm long, laser drilled actuator orifices in accordance with the invention in its preferred aspects and a third party supplied actuator with an orifice diameter of 0.22 mm. The quantities of drug deposited on the actuator, the throat and the stages of the impactor were measured. The delivered dose, the mass median aerodynamic diameter (MMAD), the geometric standard deviation (GSD), the fine particle dose ≦4.7 μm (FPD≦4.7) and the fine particle dose ≦1.1 μm (FPD≦1.1) were calculated from the results of these experiments and are set out in tables 3 and 4. The FPDs were also expressed as a % fraction of the ex-valve dose (FPF≦4.7, FPF≦1.1). Shot weight was measured by weighing the pMDI before and after discharge. These latter parameters are also set out in tables 3 and 4 along with other results of these experiments.

[2] = system: mice; settings: cited from earlier work
[3] = system: effect of THC; settings: cited from earlier work
[4] = system: cataleptic effect of THC; settings: mice; cited from earlier work
[5] = system: asthmatic patients; settings: pMDI with CFC propellant and ethanol; cited from earlier work
[6] = mouse brain; cited from earlier work
[7] = system: GABA; settings: cited from earlier work
[8] = 100 μg, 5% Ethanol, 0.1% Glycerol, HFA134a, 50 μl, Actuator 0.14 mm
[9] = 100 μg/50 μl/134a, 5% Et, 0.1% Gly, 0.14 mm Aluminium insert (4b)
[10] = 100 μg/50 μl/134a, 5% Et, 0.1% Gly, 0.16 mm Al insert (11A)
[11] = 100 μg/50 μl/134a, 5% Et, 0.1% Gly, 0.22 mm Bespak Actuator
[12] = 100 μg/50 μl/134a, 10% Et, 0.3% Gly, 0.14 mm Aluminium insert (4b)
[13] = 1000 μg, 5% Ethanol, 0.1% Glycerol, HFA134a, 50 μl, Actuator 0.14 mm

In the case of `CCCCCc1cc(OC(=O)CCC(=O)O)c2c(c1)OC(C)(C)[C@@H]1CCC(C)=C[C@@H]21` [THC-HS, Δ^9-THC hemisuccinate], the Delivered [1, 8] is reported as 97.30 µg, the “FPD<1.1 μm” value [1, 8] is reported as 37.56 µg and the “FPD<3.3 μm” value [1, 8] is reported as 89.66 µg. The “FPD<4.7 μm” value [1, 8] was 91.94 µg, the “FPF<1.1 μm” value [1, 8] was 36.86% and the “FPF<3.3 μm” value [1, 8] was 87.99%. For the same compound, the “FPF<4.7” value [1, 8] was 90.23%, the GSD [1, 8] was 1.7 and the MMAD [1, 8] was 1.3 μm. The Recovered [1, 8] was 101.90 µg, the “Shot Weight ± SD” value [1, 8] was 64.7 ± 0.5 mg and the Actuator [1, 9] was 4.57 µg. The Delivered [1, 9] was 97.30 µg, the “Dose < 1.1 μm” value [1, 9] was 37.56 µg and the “FPD<3.3 μm” value [1, 9] was 89.66 µg. The “FPD<4.7 μm” value [1, 9] was 91.94 µg, the “FPF<1.1 μm” value [1, 9] was 36.86% and the “FPF<3.3 μm” value [1, 9] was 87.99%. For the same compound, the “FPF<4.7” value [1, 9] was 90.23%, the GSD [1, 9] was 1.7 and the MMAD [1, 9] was 1.3 μm. For the same compound, the Recovered [1, 9] was 101.90 µg, the “Shot Weight ± SD” value [1, 9] was 64.7 ± 0.5 mg and the Throat [1, 9] was 3.51 µg. For the same compound, the Actuator [1, 10] was 4.88 µg, the Delivered [1, 10] was 93.40 µg and the “Dose < 1.1 μm” value [1, 10] was 28.19 µg. For the same compound, the “FPD<3.3 μm” value [1, 10] was 80.07 µg, the “FPD<4.7 μm” value [1, 10] was 83.56 µg and the “FPF<1.1 μm” value [1, 10] was 28.59%. For the same compound, the “FPF<3.3 μm” value [1, 10] was 81.25%, the “FPF<4.7” value [1, 10] was 84.79% and the GSD [1, 10] was 1.8. For the same compound, the MMAD [1, 10] was 1.4 μm, the Recovered [1, 10] was 98.55 µg and the “Shot Weight ± SD” value [1, 10] was 62.0 ± 0.6 mg. The Throat [1, 10] was 7.52 µg, the Actuator [1, 11] was 7.71 µg and the Delivered [1, 11] was 98.00 µg. The “Dose < 1.1 μm” value [1, 11] was 24.30 µg, the “FPD<3.3 μm” value [1, 11] was 77.43 µg and the “FPD<4.7 μm” value [1, 11] was 82.02 µg. The “FPF<1.1 μm” value [1, 11] was 22.99%, the “FPF<3.3 μm” value [1, 11] was 73.25% and the “FPF<4.7” value [1, 11] was 77.60%. It also gave a GSD [1, 11] of 1.7, an MMAD [1, 11] of 1.5 μm and a Recovered [1, 11] of 105.70 µg. The “Shot Weight ± SD” value [1, 11] was 62.6 ± 0.4 mg, the Throat [1, 11] was 13.82 µg and the Actuator [1, 12] was 4.35 µg. For the same compound, the Delivered [1, 12] was 79.50 µg, the “Dose < 1.1 μm” value [1, 12] was 14.21 µg and the “FPD<3.3 μm” value [1, 12] was 65.50 µg. For the same compound, the “FPD<4.7 μm” value [1, 12] was 70.93 µg, the “FPF<1.1 μm” value [1, 12] was 16.96% and the “FPF<3.3 μm” value [1, 12] was 78.16%. The “FPF<4.7” value [1, 12] was 84.64%, the GSD [1, 12] was 1.7 and the MMAD [1, 12] was 1.7 μm. The Recovered [1, 12] was 83.80 µg, the “Shot Weight ± SD” value [1, 12] was 60.7 ± 0.6 mg and the Throat [1, 12] was 5.93 µg. For the same compound, the Delivered [1, 13] was 834.3 µg, the “FPD<1.1 μm” value [1, 13] was 138.04 µg and the “FPD<3.3 μm” value [1, 13] was 676.16 µg. The “FPD<4.7 μm” value [1, 13] was 771.92 µg, the “FPF<1.1 μm” value [1, 13] was 15.83% and the “FPF<3.3 μm” value [1, 13] was 77.56%. For the same compound, the “FPF<4.7” value [1, 13] was 88.54%, the GSD [1, 13] was 1.7 and the MMAD [1, 13] was 1.9 μm. The Recovered [1, 13] was 871.8 µg and the “Shot Weight ± SD” value [1, 13] was 64.7 ± 0.6 mg.

In the case of `CCCCCc1cc(O)c2c(c1)OC(C)(CCC=C(C)C)C=C2` (stereo not drawn) [CBC, cannabichromene], the “effect on LD50 of THC” value [2] is given as “does lower LD50 of THC”.

For `CCCCCc1cc(O)c2c(c1)OC(C)(C)c1ccc(C)cc1-2` [CBN, cannabinol], the “effect on the effect of THC in man” value [3] is given as “potentates the effect of THC” and the “effect on cataleptic effect of THC” value [4] is given as “antagonises cataleptic effect of THC”.

For `CCCCCc1cc(O)c2c(c1)OC(C)(C)[C@@H]1CCC(C)=C[C@@H]21` [THC, Δ^9-tetrahydrocannabinol, reference compound], the Delivered [1, 8] was 108.2 µg, the “FPD<1.1 μm” value [1, 8] was 42.01 µg and the “FPD<3.3 μm” value [1, 8] was 98.02 µg. For the same compound, the “FPD<4.7 μm” value [1, 8] was 101.71 µg, the “FPF<1.1 μm” value [1, 8] was 36.63% and the “FPF<3.3 μm” value [1, 8] was 85.46%. The “FPF<4.7” value [1, 8] was 88.67%, the GSD [1, 8] was 1.8 and the MMAD [1, 8] was 1.3 μm. The Recovered [1, 8] was 114.7 µg, the “Shot Weight ± SD” value [1, 8] was 62.4 ± 0.8 mg and the Delivered [1, 13] was 1044.5 µg. For the same compound, the “FPD<1.1 μm” value [1, 13] was 129.7 µg, the “FPD<3.3 μm” value [1, 13] was 735.5 µg and the “FPD<4.7 μm” value [1, 13] was 907.14 µg. The “FPF<1.1 μm” value [1, 13] was 11.69%, the “FPF<3.3 μm” value [1, 13] was 66.32% and the “FPF<4.7” value [1, 13] was 81.79%. It also gave a GSD [1, 13] of 1.7, an MMAD [1, 13] of 2.3 μm and a Recovered [1, 13] of 1109.1 µg. The “Shot Weight ± SD” value [1, 13] was 63.8 ± 0.4 mg and the bronchodilatory effect [5] was “bronchodilatory effect”.

For `C=C(C)[C@@H]1CCC(C)=C[C@H]1c1c(O)cc(CCCCC)cc1O` [CBD, cannabidiol], the “effect on THC levels in the brain” value [6] is listed as “increases THC levels”.

In the case of `CCCCCc1cc(O)c(C/C=C(\C)CCC=C(C)C)c(O)c1` [CBG, cannabigerol], the “GABA inhibitor potency relative to THC” value [7] is given as “more potent GABA inhibitor than THC”.
